Laboratory results taken from patent publication US9527867B2, “Antibacterial biaromatic derivatives” (Actelion Pharmaceuticals Ltd., priority 2013, dated 2016).
Values after ≈ are worked out from the molar mass of the structure shown.

Tests used:
Test in all cases: Bacterial growth minimal inhibitory concentration (broth microdilution, CLSI M7-A7)
Format in all cases: cell-based
[1] = system: Moraxella catarrhalis A894; details: Moraxella catarrhalis, A894, cation-adjusted Mueller-Hinton Broth, quinolone-sensitive strain
Procedure, shortened: (§1)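 Compounds are serially diluted in cation-adjusted Mueller-Hinton broth, inoculated and scored for MIC (mg/L) per the CLSI M7-A7 microdilution standard. A798 and T6474 carry multiple resistances including to quinolones.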

[2] = system: Acinetobacter baumannii T6474; details: Acinetobacter baumannii, T6474, cation-adjusted Mueller-Hinton Broth, multiply-resistant strain (in particular quinolone-resistant)
Procedure, shortened: as §1

[3] = system: Staphylococcus aureus A798; details: Staphylococcus aureus, A798, cation-adjusted Mueller-Hinton Broth, multiply-resistant strain (in particular quinolone-resistant), read-out: MIC for S. aureus A798
Procedure, shortened: as §1

[4] = system: Staphylococcus aureus ATCC29213; details: Staphylococcus aureus, ATCC29213, cation-adjusted Mueller-Hinton Broth, methicillin-sensitive and quinolone-sensitive strain, read-out: MIC for S. aureus ATCC29213
Procedure, shortened: as §1

[5] = system: Enterococcus faecium A949; details: Enterococcus faecium, A949, cation-adjusted Mueller-Hinton Broth, multiply-resistant strain (in particular quinolone-resistant), read-out: MIC for E. faecium A949
Procedure, shortened: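 Broth microdilution after CLSI M7-A7 in cation-adjusted Mueller-Hinton medium gave MIC values in mg/L.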

Row | MIC [1] [µg/mL] | MIC [2] [µg/mL] | MIC [3] [µg/mL] | MIC [4] [µg/mL] | MIC [5] [µg/mL] | SMILES
1 | ≤ 0.063 | 0.5 (≈ 1.02 µM) | 0.125 (≈ 0.255 µM) | 0.25 (≈ 0.511 µM) | 8 (≈ 16.3 µM) | CCOc1cncc(-c2cccc(CNCC[C@H]3CN(c4ccc5c(n4)NC(=O)CO5)C(=O)O3)c2)c1 [Example 84, 6-((S)-5-{2-[3-(5-ethoxy-pyridin-3-yl)-benzylamino]-ethyl}-2-oxo-oxazolidin-3-yl)-4H-pyrido[3,2-b][1,4]oxazin-3-one]
2 | ≤ 0.016 | 8 (≈ 16 µM) | 0.5 (≈ 1 µM) | 0.125 (≈ 0.25 µM) | 4 (≈ 8.01 µM) | COc1cccc(-c2cccc(CNCC[C@H]3CN(c4ccc5c(n4)NC(=O)CO5)C(=O)O3)c2)c1C#N [Example 86, 3-methoxy-3′-({2-[(S)-2-oxo-3-(3-oxo-3,4-dihydro-2H-pyrido[3,2-b][1,4]oxazin-6-yl)-oxazolidin-5-yl]-ethylamino}-methyl)-biphenyl-2-carbonitrile]
3 | ≤ 0.016 | 0.25 (≈ 0.525 µM) | 0.063 (≈ 0.132 µM) | 0.125 (≈ 0.262 µM) | 2 (≈ 4.2 µM) | COc1cccc(-c2cc(CNCC[C@H]3CN(c4ccc5c(n4)NC(=O)CO5)C(=O)O3)ccn2)n1 [Example 87, 6-((S)-5-{2-[(6′-methoxy-[2,2]bipyridinyl-4-ylmethyl)-amino]-ethyl}-2-oxo-oxazolidin-3-yl)-4H-pyrido[3,2-b][1,4]oxazin-3-one]
4 | ≤ 0.016 | 0.063 (≈ 0.132 µM) | 0.031 (≈ 0.0651 µM) | 0.031 (≈ 0.0651 µM) | 2 (≈ 4.2 µM) | COc1cncc(-c2cccc(CNCC[C@H]3CN(c4ccc5c(n4)NC(=O)CO5)C(=O)O3)c2)n1 [Example 91, 6-((S)-5-{2-[3-(6-methoxy-pyrazin-2-yl)-benzylamino]-ethyl}-2-oxo-oxazolidin-3-yl)-4H-pyrido[3,2-b][1,4]oxazin-3-one]

Further lines, the molecule ahead of its results:

Row | SMILES | MIC [1] [µg/mL] | MIC [2] [µg/mL] | MIC [3] [µg/mL] | MIC [4] [µg/mL] | MIC [5] [µg/mL]
5 | COc1cnnc(-c2cccc(CNCCc3cn(-c4ccc5c(n4)NC(=O)CO5)c(=O)o3)c2)c1 [Example 83, 6-(5-{2-[3-(5-methoxy-pyridazin-3-yl)-benzylamino]-ethyl}-2-oxo-oxazol-3-yl)-4H-pyrido[3,2-b][1,4]oxazin-3-one] | ≤ 0.016 | 0.063 (≈ 0.133 µM) | 0.063 (≈ 0.133 µM) | 0.063 (≈ 0.133 µM) | 2 (≈ 4.22 µM)
6 | COc1cccc(-c2cccc(CNCCc3cn(-c4ccc5c(n4)NC(=O)CO5)c(=O)o3)c2O)n1 [Example 85, 6-(5-{2-[2-hydroxy-3-(6-methoxy-pyridin-2-yl)-benzylamino]-ethyl}-2-oxo-oxazol-3-yl)-4H-pyrido[3,2-b][1,4]oxazin-3-one] | ≤ 0.016 | 0.125 (≈ 0.255 µM) | ≤ 0.016 | ≤ 0.016 | 0.5 (≈ 1.02 µM)
7 | N#Cc1cccc(-c2cccc(CNCC[C@H]3CN(c4ccc5c(c4)NC(=O)CO5)C(=O)O3)c2O)n1 [Example 88, 6-[2-hydroxy-3-({2-[(S)-2-oxo-3-(3-oxo-3,4-dihydro-2H-benzo[1,4]oxazin-6-yl)-oxazolidin-5-yl]-ethylamino}-methyl)-phenyl]-pyridine-2-carbonitrile] | ≤ 0.016 | 0.25 (≈ 0.515 µM) | 0.25 (≈ 0.515 µM) | 0.125 (≈ 0.257 µM) | 4 (≈ 8.24 µM)
8 | COc1cnnc(-c2cc(CNCC[C@H]3CN(c4ccc5c(n4)NC(=O)CO5)C(=O)O3)ccc2O)c1 [Example 89, 6-((S)-5-{2-[4-hydroxy-3-(5-methoxy-pyridazin-3-yl)-benzylamino]-ethyl}-2-oxo-oxazolidin-3-yl)-4H-pyrido[3,2-b][1,4]oxazin-3-one] | ≤ 0.016 | 0.125 (≈ 0.254 µM) | 0.063 (≈ 0.128 µM) | 0.063 (≈ 0.128 µM) | 8 (≈ 16.2 µM)
9 | COc1cccc(-c2cccc(CNCC[C@H]3CN(c4ccc5c(c4)NC(=O)CO5)C(=O)O3)c2O)n1 [Example 90, 6-((S)-5-{2-[2-hydroxy-3-(6-methoxy-pyridin-2-yl)-benzylamino]-ethyl}-2-oxo-oxazolidin-3-yl)-4H-benzo[1,4]oxazin-3-one] | ≤ 0.016 | 0.5 (≈ 1.02 µM) | 0.031 (≈ 0.0632 µM) | 0.063 (≈ 0.128 µM) | 2 (≈ 4.08 µM)
